Data as given in patent publication US20160002247A1, “8-SUBSTITUTED IMIDAZOPYRIMIDINONE DERIVATIVE HAVING AUTOTAXIN INHIBITORY ACTIVITY” (THE UNIVERSITY OF TOKYO, priority 2013, published 2016).

Each compound was assayed against T1, Human autotaxin enzyme (Homo sapiens, UniProt Q13822) (assay: Evaluation of autotaxin inhibitor, Method C (Test Example 3): 18:0 Lyso PC, choline assay, Resorufin fluorescence). Conditions: Assay Method C (Test Example 3), human autotaxin, 18:0 Lyso PC substrate; read-out: Inhibitory Activity (autotaxin enzyme inhibitory activity, IC50 class).
T1 construct: purchased R&D System
Type: biochemical
Description: (Method C) Evaluation of Autotaxin Inhibitor
Solution B containing 100 mM Tris-HCl buffer (pH7.5), 150 mM NaCl, 5 mM MgCl2 and 0.05% Triton X-100 was prepared. Human autotaxin enzyme (purchased from R&D System) was diluted with Solution B, and 2.5 μL of which was added to a solution of test compound in DMSO. Furthermore, 2.5 μl of 200 μM 18:0 Lyso PC (purchased from Avanti Polar Lipids) in Solution B was added and allowed to react at room temperature for 2 hours. After completion of the reaction, 15 μL of the coline assay reagent (100 mM Tris-HCl buffer (pH7.5), 5 mM MgCl2, 77 μg/mL choline oxidase, 10 μg/mL peroxidase, 25 μM 10-acetyl-3,7-dihydroxyphenoxazine and excess autotaxin inhibitor) was added and allowed to react at room temperature for 20 minutes. The fluorescent dye Resorufin, which was produced by the reaction, was detected. The fluorescence was detected using ViewLux (PerkinElmer, Inc.) with an excitation wavelength of 531 nm and a fluorescence wavelength of 598 nm.
The percent inhibition of the test compound was calculated by assuming the sample with no test compound as 0% inhibition and the sample with no enzyme as 100% inhibition, and the percent inhibitions at different concentrations of the test compound were plotted to obtain a concentration-dependent curve.

Compound	IC50
CCCCCn1c(N2CCC[C@H]2C(=O)N[C@@H](CO)C(=O)OC)cc(=O)n2cc(-c3ccc(Cl)cc3)nc12 [Compound 687]	100 to 1000 nM
CCCCCn1c(N2CCC[C@@H]2CC(=O)NCCC(=O)O)cc(=O)n2cc(-c3ccc(Cl)cc3)nc12 [Compound 622]	100 to 1000 nM
CCCCCn1c(N(CCOCCOC)C(C)=O)cc(=O)n2cc(-c3ccc(Cl)cc3)nc12 [Compound 562]	100 to 1000 nM
CCCCCn1c(N2CCC[C@@]2(C)C(=O)O)cc(=O)n2cc(-c3ccc(Cl)cc3)nc12 [Compound 606]	> 1000 nM
CCCCCn1c(NC2(C(=O)NCC(=O)O)CC2)cc(=O)n2cc(-c3ccc(Cl)cc3)nc12 [Compound 637]	> 1000 nM
CCCCCn1c(O[C@H]2C[C@@H](NC(=O)OC(C)(C)C)C2)cc(=O)n2cc(-c3ccc(Cl)cc3)nc12 [Compound 551]	100 to 1000 nM
CCCCCn1c(N2CCN(C(=O)N3CCCCC3)CC2)cc(=O)n2cc(-c3ccc(Cl)cc3)nc12 [Compound 291]	100 to 1000 nM
CCCCCn1c(-c2ccc(C(=O)NCc3ccc([N+](=O)[O-])cc3)cc2)cc(=O)n2cc(-c3ccc(Cl)cc3)nc12 [Compound 518]	100 to 1000 nM
Cn1c(N2CCC[C@H]2C(=O)N[C@H](C(=O)O)C(C)(C)C)cc(=O)n2cc(-c3ccc(Cl)cc3)nc12 [Compound 770]	100 to 1000 nM
CCCCCn1c(OCC2CCN(C(=O)OC(C)(C)C)C2)cc(=O)n2cc(-c3ccc(Cl)cc3)nc12 (stereo not drawn) [Compound 553]	100 to 1000 nM
CCCCCn1c(N2CCC[C@H]2C(=O)NCC(=O)N(C)C)cc(=O)n2cc(-c3ccc(Cl)cc3)nc12 [Compound 699]	100 to 1000 nM
CCn1c(N2CCC[C@H]2C(=O)NCC(=O)O)cc(=O)n2cc(-c3ccc(Cl)cc3)nc12 [Compound 756]	100 to 1000 nM
CCCCCn1c(N2CCC(F)(F)CC2)cc(=O)n2cc(-c3ccc(Cl)cc3)nc12 [Compound 310]	100 to 1000 nM
CCn1c(N2CCC[C@H]2C(=O)N[C@@H](Cc2ccccc2)C(=O)O)cc(=O)n2cc(-c3ccc(Cl)cc3)nc12 [Compound 755]	100 to 1000 nM
CCn1c(N2C[C@H](O)C[C@H]2C(=O)N[C@@H](Cc2ccccc2)C(=O)O)cc(=O)n2cc(-c3ccc(Cl)cc3)nc12 [Compound 761]	100 to 1000 nM
CCCCCn1c(N2C[C@@H](O)C[C@H]2C(=O)O)cc(=O)n2cc(-c3ccc(Cl)cc3)nc12 [Compound 590]	100 to 1000 nM

Second part, the compound after the results:

IC50	Compound
100 to 1000 nM	CCCCCn1c(N2CCCC[C@@H]2C(=O)NCC(=O)O)cc(=O)n2cc(-c3ccc(Cl)cc3)nc12 [Compound 638]
< 10 nM	CCCCCn1c(N2CCC[C@H]2C(=O)NC2(C(=O)O)CC2)cc(=O)n2cc(-c3ccc(Cl)cc3)nc12 [Compound 679]
100 to 1000 nM	CCCCCn1c(N2CCC[C@H]2C(=O)NCCCn2ccnc2)cc(=O)n2cc(-c3ccc(Cl)cc3)nc12 [Compound 335]
100 to 1000 nM	CCCCCn1c(N2CCCC(C)C2)cc(=O)n2cc(-c3ccc(Cl)cc3)nc12 (stereo not drawn) [Compound 300]
< 10 nM	CCCCCn1c(N2CCC[C@H]2C(=O)N[C@@H](CCc2ccccc2)C(=O)O)cc(=O)n2cc(-c3ccc(Cl)cc3)nc12 [Compound 735]
100 to 1000 nM	CCCCCn1c(-c2ccc(C(=O)N3CCC4(CN(C(=O)OC(C)(C)C)C4)C3)cc2)cc(=O)n2cc(-c3ccc(Cl)cc3)nc12 [Compound 491]
10 to 100 nM	CCCCCn1c(-c2cnc(OC)nc2OC)cc(=O)n2cc(-c3ccc(Cl)cc3)nc12 [Compound 454]
100 to 1000 nM	CCCCCn1c(-c2ccc(C(=O)NC(C)(C)C)cc2)cc(=O)n2cc(-c3ccc(Cl)cc3)nc12 [Compound 468]
10 to 100 nM	CCCCCn1c(-c2cncnc2)cc(=O)n2cc(-c3ccc(Cl)cc3)nc12 [Compound 409]
10 to 100 nM	O=C(O)CNC(=O)[C@@H]1C[C@@H](O)CN1c1cc(=O)n2cc(-c3ccc(Cl)cc3)nc2n1Cc1ccccc1 [Compound 750]
< 10 nM	CCCCCn1c(N2CCC[C@H]2C(=O)N2CCCC2C(=O)O)cc(=O)n2cc(-c3ccc(Cl)cc3)nc12 (stereo partly drawn) [Compound 349]
< 10 nM	CCCCCn1c(N2CCC[C@H]2C(=O)NC(C)(C)CC(=O)O)cc(=O)n2cc(-c3ccc(Cl)cc3)nc12 [Compound 350]
10 to 100 nM	CCCCCn1c(-c2ccc(C(=O)N3CCC(O)CC3)cc2)cc(=O)n2cc(-c3ccc(Cl)cc3)nc12 [Compound 472]
10 to 100 nM	CCCCCn1c(N2CCC[C@H]2C(=O)N[C@@H](C)C(=O)OC)cc(=O)n2cc(-c3ccc(Cl)cc3)nc12 [Compound 690]
10 to 100 nM	CCCCCn1c(N2CCC[C@H]2C(=O)N(C)CCC#N)cc(=O)n2cc(-c3ccc(Cl)cc3)nc12 [Compound 336]
< 10 nM	CCCCCn1c(N2CCC[C@H](C(=O)NCCC(=O)O)C2)cc(=O)n2cc(-c3ccc(Cl)cc3)nc12 [Compound 616]

IC50	Compound
< 10 nM	CCCCCn1c(N2CCC[C@H]2C(=O)N[C@@H](Cc2ccc3ccccc3c2)C(=O)O)cc(=O)n2cc(-c3ccc(Cl)cc3)nc12 [Compound 726]
10 to 100 nM	CCCCCn1c(OC2CNC2)cc(=O)n2cc(-c3ccc(Cl)cc3)nc12 [Compound 537]
10 to 100 nM	CCCCCn1c(O[C@H]2CCN(CCC(=O)O)C2)cc(=O)n2cc(-c3ccc(Cl)cc3)nc12 [Compound 576]
10 to 100 nM	CCCCCn1c(N2C[C@H](O)C[C@H]2C(=O)NC(C)(C)CC(=O)OCC)cc(=O)n2cc(-c3ccc(Cl)cc3)nc12 [Compound 597]
< 10 nM	CCCCCn1c(N2CCC[C@H]2C(=O)N2CCC[C@H](C(=O)O)C2)cc(=O)n2cc(-c3ccc(Cl)cc3)nc12 [Compound 677]
10 to 100 nM	CCCCCn1c(-c2ccc(C(=O)NCCS(=O)(=O)N3CCCC3)cc2)cc(=O)n2cc(-c3ccc(Cl)cc3)nc12 [Compound 513]
< 10 nM	CCCCCn1c(N2CCC[C@H]2C(=O)NCC(=O)O)cc(=O)n2cc(-c3ccc(Cl)cc3)nc12 [Compound 348]
10 to 100 nM	N#CCCCCn1c(NCc2ccc(C(=O)O)cc2)cc(=O)n2cc(-c3ccc(C#N)cc3)nc12 [Compound 288]
10 to 100 nM	CCCCCn1c(N2CCC[C@H]2C(=O)NCCCCCCN(C)C)cc(=O)n2cc(-c3ccc(Cl)cc3)nc12 [Compound 651]
10 to 100 nM	CCCCCn1c(N2C[C@@H](O)C[C@H]2C(=O)NCCC(=O)OCC)cc(=O)n2cc(-c3ccc(Cl)cc3)nc12 [Compound 594]
10 to 100 nM	CCCCCn1c(-c2ccc(C(=O)N3CCN(C(C)=O)CC3)cc2)cc(=O)n2cc(-c3ccc(Cl)cc3)nc12 [Compound 474]
< 10 nM	CCCCCn1c(N2C[C@H](O)C[C@H]2C(=O)NC(C)(C)CC(=O)O)cc(=O)n2cc(-c3ccc(Cl)cc3)nc12 [Compound 585]
10 to 100 nM	CCCCCn1c(N2CCCC[C@@H]2C(=O)NCCC(=O)O)cc(=O)n2cc(-c3ccc(Cl)cc3)nc12 [Compound 626]
< 10 nM	O=C(O)[C@H](Cc1ccccc1)NC(=O)[C@@H]1CCCN1c1cc(=O)n2cc(-c3ccc(Cl)cc3)nc2n1Cc1ccccc1 [Compound 743]
10 to 100 nM	CCCCCn1c(N2CCC[C@H]2C(=O)N[C@H](Cc2ccccc2)C(=O)O)cc(=O)n2cc(-c3ccc(Cl)cc3)nc12 [Compound 725]
< 10 nM	CCCCCn1c(N2CCC[C@H]2C(=O)NCCCCCN2CCOCC2)cc(=O)n2cc(-c3ccc(Cl)cc3)nc12 [Compound 654]

Same assay, conditions: Assay Method C, human autotaxin, 18:0 Lyso PC substrate; read-out: Inhibitory Activity

IC50	Compound
> 1000 nM	O=C(Cc1cn(CCCC(F)(F)F)c2nc(-c3ccc(Cl)cc3)cn2c1=O)N1CCC(O)CC1 [Compound 838]
100 to 1000 nM	O=C(Cc1cn(CCCC(F)(F)F)c2nc(-c3ccc(Cl)cc3)cn2c1=O)N1CCOCC1 [Compound 865]
100 to 1000 nM	CCCCCn1c(N2CCC[C@H]2C(=O)Oc2cc(N)ccc2OC)cc(=O)n2cc(-c3ccc(Cl)cc3)nc12 [Compound 801]
> 1000 nM	O=C(O)Cc1cn(CCCC(F)(F)F)c2nc(-c3ccc(Cl)cc3)cn2c1=O [Compound 827]
10 to 100 nM	C#CCNC(=O)C1CCCCN1c1cc(=O)n2cc(-c3ccc(Cl)cc3)nc2n1CCCCC (stereo not drawn) [Compound 807]
100 to 1000 nM	C[C@H](NC(=O)[C@@H]1C[C@@H](O)CN1c1cc(=O)n2cc(-c3ccc(Cl)cc3)nc2n1C)C(=O)O [Compound 782]
100 to 1000 nM	CN(CC#N)C(=O)Cc1cn(CCCC(F)(F)F)c2nc(-c3ccc(Cl)cc3)cn2c1=O [Compound 834]
100 to 1000 nM	CCCCCn1c(N2CCCC(C(=O)O)C2C)cc(=O)n2cc(-c3ccc(Cl)cc3)nc12 (stereo not drawn) [Compound 809]
10 to 100 nM	CCCCCn1c(N2CCC[C@H]2C(=O)Nc2cc(O)no2)cc(=O)n2cc(-c3ccc(Cl)cc3)nc12 [Compound 799]
< 10 nM	CCCCCn1c(-c2ccc(C(=O)NCCNCCO)cc2)cc(=O)n2cc(-c3ccc(Cl)cc3)nc12 [Compound 817]
10 to 100 nM	CCCCCn1c(N2CCC[C@H]2C(=O)Nc2nn[nH]n2)cc(=O)n2cc(-c3ccc(Cl)cc3)nc12 [Compound 783]
100 to 1000 nM	CONC(=O)Cc1cn(CCCC(F)(F)F)c2nc(-c3ccc(Cl)cc3)cn2c1=O [Compound 845]
10 to 100 nM	CCC(CO)(CO)NC(=O)Cc1cn(CCCC(F)(F)F)c2nc(-c3ccc(Cl)cc3)cn2c1=O [Compound 861]
< 10 nM	CCCCCn1c(N2CCC[C@H]2C(=O)NCc2nn[nH]n2)cc(=O)n2cc(-c3ccc(Cl)cc3)nc12 [Compound 795]
> 1000 nM	CCCCCn1c(N2CCCCC2c2ccccc2)cc(=O)n2cc(-c3ccc(Cl)cc3)nc12 (stereo not drawn) [Compound 803]
